How the values were obtained:
Format in all cases: in vivo
[1] = system: foxtail, green (green foxtail, Setaria viridis); assay: Test D pre-/postemergence: foxtail, green
From the text: (§1) Seeds of plant species selected from bluegrass (annual bluegrass, Poa annua), blackgrass (Alopecurus myosuroides), canarygrass (Phalaris minor), chickweed (common chickweed, Stellaria media), galium (catchweed bedstraw, Galium aparine), bromegrass, downy (downy bromegrass, Bromus tectorum), field poppy (Papaver rhoeas), field violet (Viola arvensis), foxtail, green (green foxtail, Setaria viridis), deadnettle (henbit deadnettle, Lamium amplexicaule), ryegrass, Italian (Italian ryegrass, Lolium multiflorum), kochia (Kochia scoparia), lambsquarters (Chenopodium album), oilseed rape (Brassica napus), pigweed (Amaranthus retroflexus), Russian thistle (Salsola iberica), chamomile (scentless chamomile, Matricaria inodora), speedwell (bird's-eye speedwell, Veronica persica), barley, spring (spring barley, Hordeum vulgare), wheat, spring (spring wheat, Triticum aestivum), buckwheat, wild (wild buckwheat, Polygonum convolvulus), mustard, wild (wild mustard, Sinapis arvensis), oat, wild (wild oat, Avena fatua), radish, wild (wild radish, Raphanus raphanistrum), windgrass (Apera spica-venti), barley, winter (winter barley, Hordeum vulgare), and wheat, winter (winter wheat, Triticum aestivum) were planted into a silt loam soil and treated preemergence with test chemicals formulated in a non-phytotoxic solvent mixture which included a surfactant. At the same time, these same crop and weed species were planted in pots containing the planting medium comprising spaghnum peat moss, vermiculite, wetting agent and starter nutrients and treated with postemergence applications of the test chemicals formulated in the same manner. Plants ranged in height from 2 to 18 cm (1- to 4-leaf stage).
(§2) Treated plants and controls were maintained in a controlled growth environment for 14 to 21 days after which time all species were compared to controls and visually evaluated. Plant response ratings, summarized in Table D, are based on a scale of 0 to 100 where 0 is no effect and 100 is complete control. A dash (-) response means no test result.

[2] = system: mustard, wild (wild mustard, Sinapis arvensis); assay: Test D pre-/postemergence: mustard, wild
From the text: as §1, §2

[3] = system: lambsquarters (Chenopodium album); assay: Test D pre-/postemergence: lambsquarters
From the text: as §1, §2

[4] = system: kochia (Kochia scoparia); assay: Test D pre-/postemergence: kochia
From the text: as §1, §2

[5] = system: deadnettle (henbit deadnettle, Lamium amplexicaule); assay: Test D pre-/postemergence: deadnettle
From the text: as §1, §2

[6] = Postemergence, 31 g ai/ha, scale 0 to 100 (0 no effect, 100 complete control)
[7] = Postemergence, 62 g ai/ha, scale 0 to 100 (0 no effect, 100 complete control)
[8] = Postemergence, 125 g ai/ha, scale 0 to 100, 0 no effect, 100 complete control
[9] = Postemergence, 250 g ai/ha, scale 0 to 100 (0 no effect, 100 complete control)
[10] = Postemergence, 16 g ai/ha, scale 0 to 100
[11] = Preemergence, 31 g ai/ha, scale 0 to 100, 0 no effect, 100 complete control
[12] = Preemergence, 62 g ai/ha, scale 0 to 100
[13] = Preemergence, 125 g ai/ha, scale 0 to 100
[14] = Preemergence, 250 g ai/ha, scale 0 to 100

COc1nn(-c2ccc(C(F)(F)F)cc2)nc1Cc1ccnc(C(F)(F)F)c1 [Compound 15, 4-[[5-methoxy-2-[4-(trifluoromethyl)phenyl]-2H-1,2,3-triazol-4-yl]methyl]-2-(trifluoromethyl)pyridine]
70: Plant response rating, Foxtail, Green [1, 11] | Plant response rating: Mustard, Wild [2, 6] | Plant response rating, Kochia [4, 13]
98: Plant response rating: Deadnettle [5, 7]
75: Plant response rating: Foxtail, Green [1, 8] | Plant response rating: Deadnettle [5, 6]
40: Plant response rating, Deadnettle [5, 12]
15: Plant response rating, Foxtail, Green [1, 10]
90: Plant response rating, Lambsquarters [3, 12] | Plant response rating: Kochia [4, 6] | Plant response rating: Kochia [4, 7]
100: Plant response rating: Foxtail, Green [1, 9] | Plant response rating, Foxtail, Green [1, 12] | Plant response rating, Foxtail, Green [1, 13] | Plant response rating, Foxtail, Green [1, 14] | Plant response rating: Mustard, Wild [2, 7] | Plant response rating: Mustard, Wild [2, 8] | Plant response rating: Mustard, Wild [2, 9] | Plant response rating, Mustard, Wild [2, 11] | Plant response rating, Mustard, Wild [2, 12] | Plant response rating, Mustard, Wild [2, 13] | Plant response rating, Mustard, Wild [2, 14] | Plant response rating: Lambsquarters [3, 6] | Plant response rating: Lambsquarters [3, 7] | Plant response rating: Lambsquarters [3, 8] | Plant response rating: Lambsquarters [3, 9] | Plant response rating, Lambsquarters [3, 13] | Plant response rating, Lambsquarters [3, 14] | Plant response rating: Kochia [4, 8] | Plant response rating: Kochia [4, 9] | Plant response rating, Kochia [4, 14] | Plant response rating: Deadnettle [5, 8] | Plant response rating: Deadnettle [5, 9] | Plant response rating, Deadnettle [5, 14]
30: Plant response rating: Foxtail, Green [1, 6]
50: Plant response rating, Lambsquarters [3, 10] | Plant response rating, Deadnettle [5, 10]
20: Plant response rating, Kochia [4, 10]
80: Plant response rating: Foxtail, Green [1, 7]
10: Plant response rating, Deadnettle [5, 11]
95: Plant response rating, Deadnettle [5, 13]
0: Plant response rating, Mustard, Wild [2, 10] | Plant response rating, Lambsquarters [3, 11] | Plant response rating, Kochia [4, 11] | Plant response rating, Kochia [4, 12]

Cc1nn(-c2ccc(C(F)(F)F)cn2)nc1Cc1cccc(C(F)(F)F)c1 [Compound 106]
50: Plant response rating, Mustard, Wild [2, 12] | Plant response rating, Mustard, Wild [2, 13] | Plant response rating: Lambsquarters [3, 8]
20: Plant response rating: Foxtail, Green [1, 7] | Plant response rating, Mustard, Wild [2, 10] | Plant response rating, Mustard, Wild [2, 11] | Plant response rating, Lambsquarters [3, 10] | Plant response rating, Deadnettle [5, 10]
95: Plant response rating: Kochia [4, 8]
70: Plant response rating: Kochia [4, 7]
60: Plant response rating, Mustard, Wild [2, 14] | Plant response rating: Kochia [4, 6] | Plant response rating, Kochia [4, 10] | Plant response rating: Deadnettle [5, 8]
90: Plant response rating: Mustard, Wild [2, 8] | Plant response rating: Lambsquarters [3, 9]
10: Plant response rating: Foxtail, Green [1, 6]
0: Plant response rating, Foxtail, Green [1, 10] | Plant response rating, Foxtail, Green [1, 11] | Plant response rating, Foxtail, Green [1, 12] | Plant response rating, Foxtail, Green [1, 13] | Plant response rating, Kochia [4, 11] | Plant response rating, Kochia [4, 12] | Plant response rating, Deadnettle [5, 11] | Plant response rating, Deadnettle [5, 12] | Plant response rating, Deadnettle [5, 13] | Plant response rating, Deadnettle [5, 14]
80: Plant response rating: Mustard, Wild [2, 6] | Plant response rating: Mustard, Wild [2, 7] | Plant response rating: Deadnettle [5, 9]
30: Plant response rating: Foxtail, Green [1, 8] | Plant response rating: Lambsquarters [3, 6] | Plant response rating: Lambsquarters [3, 7] | Plant response rating, Kochia [4, 13] | Plant response rating, Kochia [4, 14] | Plant response rating: Deadnettle [5, 6]
40: Plant response rating: Foxtail, Green [1, 9] | Plant response rating, Lambsquarters [3, 11] | Plant response rating, Lambsquarters [3, 12] | Plant response rating, Lambsquarters [3, 13] | Plant response rating, Lambsquarters [3, 14] | Plant response rating: Deadnettle [5, 7]
100: Plant response rating, Foxtail, Green [1, 14] | Plant response rating: Mustard, Wild [2, 9] | Plant response rating: Kochia [4, 9]

COc1nn(-c2ccc(C(F)(F)F)cc2)nc1Cc1ccnc(C(F)F)c1 [Compound 138]
40: Plant response rating: Foxtail, Green [1, 6]
75: Plant response rating: Foxtail, Green [1, 7] | Plant response rating, Mustard, Wild [2, 10] | Plant response rating: Deadnettle [5, 7]
20: Plant response rating, Foxtail, Green [1, 10]
80: Plant response rating: Foxtail, Green [1, 8] | Plant response rating: Lambsquarters [3, 6] | Plant response rating: Deadnettle [5, 8]
95: Plant response rating: Mustard, Wild [2, 7] | Plant response rating: Lambsquarters [3, 8] | Plant response rating: Kochia [4, 6] | Plant response rating, Kochia [4, 10] | Plant response rating: Deadnettle [5, 9]
50: Plant response rating: Deadnettle [5, 6] | Plant response rating, Deadnettle [5, 10]
70: Plant response rating, Lambsquarters [3, 10]
100: Plant response rating: Foxtail, Green [1, 9] | Plant response rating: Mustard, Wild [2, 8] | Plant response rating: Mustard, Wild [2, 9] | Plant response rating: Lambsquarters [3, 9] | Plant response rating: Kochia [4, 7] | Plant response rating: Kochia [4, 8] | Plant response rating: Kochia [4, 9]
90: Plant response rating: Mustard, Wild [2, 6] | Plant response rating: Lambsquarters [3, 7]
